Results on 14 compounds are retold here after patent US7923462B2, “Catechol derivative, pharmaceutical composition containing the same, use of the catechol derivative, and use of the pharmaceutical composition” (Kissei Pharmaceutical Co., Ltd., priority 2007, dated 2011).

The target in one test is T1, recombinant human COMT (Homo sapiens, UniProt P21964).
T1 construct: GST (N, cleaved yes); made in house; host or cells: E. coli BL21 (DE3) CODON PLUS RP
T1 sequence (P21964 with tags, fused parts or gaps): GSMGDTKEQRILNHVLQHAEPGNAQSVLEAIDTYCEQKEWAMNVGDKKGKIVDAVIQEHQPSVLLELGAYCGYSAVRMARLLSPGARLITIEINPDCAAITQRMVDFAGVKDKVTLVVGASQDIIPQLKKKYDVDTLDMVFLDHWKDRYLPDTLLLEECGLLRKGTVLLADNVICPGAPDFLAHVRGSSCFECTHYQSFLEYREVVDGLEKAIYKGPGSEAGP
In words: Human COMT inhibitory potency. The format is biochemical. The following applies: catechol substrate, [3H]-S-adenosyl-L-methionine, 37° C. 30 minutes.

Test [1] relates to rat cryopreserved hepatocytes. Description: Rat hepatocyte toxicities (cell viability, ATP activity). The format is cell-based. The following applies: concentration that shows 50% of the number of viable cells of control, 4 hours at 37° C.
Test [2] is described as follows: Evaluation of plasma L-dopa concentration. The following applies: percentage of control group, test compound 3 mg/kg oral, blood 2 hours later; for Plasma L-dopa (%) 4 hour: L-dopa 5 mg/kg and carbidopa 30 mg/kg oral 4 hours after; for Plasma L-dopa (%) 6 hour: L-dopa 5 mg/kg and carbidopa 30 mg/kg oral 6 hours after. The format is in vivo, Sprague-Dawley rats.
Test [3] relates to unilateral 6-hydroxydopamine-lesioned hemi-Parkinsonian rats. In words: Potentiation of the efficacy of L-dopa, turning behavior. The following applies: 10 mg/kg oral with 5 mg/kg L-dopa and 30 mg/kg carbidopa; for Total counts: contralateral rotation counts; for Duration: duration of contralateral turning response. The format is in vivo, Sprague-Dawley rats.

`Cc1noc(-c2cc(O)c(O)c([N+](=O)[O-])c2)n1` [Comparative example 1, 5-(3-methyl-[1,2,4]oxadiazol-5-yl)-3-nitro-benzene-1,2-diol, reference compound]: the IC50 on recombinant human COMT was found to be 0.0132 µM. For the same compound, in test [1], a half-maximal response (EC50) required 172 µM. In test [2], the “Plasma L-dopa (%) 4 hour” value was determined as 143.3 ± 13.3% and the “Plasma L-dopa (%) 6 hour” value came out at 106.9 ± 18.2%.
On to `Cc1nc(-c2cc(O)c(O)c([N+](=O)[O-])c2C(=O)c2ccccc2)no1` [Compound 1-1, [3,4-Dihydroxy-6-(5-methyl-[1,2,4]oxadiazol-3-yl)-2-nitro-phenyl]phenylmethanone], for which the half-inhibitory concentration (IC50) on recombinant human COMT worked out at 0.0094 µM. In addition, the EC50 in test [1] amounted to 683 µM. Also, in test [2], the “Plasma L-dopa (%) 4 hour” value is 182.9 ± 5.0% and the “Plasma L-dopa (%) 6 hour” value is 189.2 ± 32.8%. Also, in test [3], the Total counts was determined as 2060.8 and the “Duration” value was found to be 293.8 min.
In turn, `CC(=O)c1c(-c2noc(C)n2)cc(O)c(O)c1[N+](=O)[O-]` [Compound 1-2] gave a half-maximal effective concentration (EC50) in test [1] of 645 µM. In test [3], the Total counts stood at 2103.0 and the “Duration” value was determined as 312.5 min.
`Cc1nc(-c2cc(O)c(O)c([N+](=O)[O-])c2C(=O)C(C)C)no1` [Compound 1-3, 1-[3,4-dihydroxy-6-(5-methyl-[1,2,4]-oxadiazol-3-yl)-2-nitrophenyl]-2-methylpropane-1-one]: the 50% inhibitory concentration (IC50) at recombinant human COMT stood at 0.0081 µM. For the same compound, a half-maximal effect in test [1] (EC50) was put at 698 µM.
`COC(=O)c1c(-c2noc(C)n2)cc(O)c(O)c1[N+](=O)[O-]` [Compound 1-5, methyl 3,4-dihydroxy-6-(5-methyl-[1,2,4]-oxadiazol-3-yl)-2-nitrobenzoate]: the IC50 on recombinant human COMT is 0.0093 µM. Besides, the EC50 in test [1] is greater than 1000 µM. For the same compound, in test [3], the Total counts is 2051.9 and the “Duration” value stood at 321.3 min.
Turning to `COCc1nc(-c2cc(O)c(O)c([N+](=O)[O-])c2C(=O)OC)no1` [Compound 1-9], the IC50 on recombinant human COMT was found to be 0.0077 µM. This compound showed an EC50 in test [1] greater than 1000 µM.
On to `CCOC(=O)c1c(-c2noc(C)n2)cc(O)c(O)c1[N+](=O)[O-]` [Compound 1-14], for which, in test [3], the Total counts is listed as 1678.4 and the “Duration” value turned out to be 275.0 min.
Take `Cc1nc(-c2cc(O)c(O)c([N+](=O)[O-])c2C(=O)C2CCCCC2)no1` [Compound 1-20]: the IC50 at recombinant human COMT was 0.0087 µM.
In the case of `Cc1nc(-c2cc(O)c(O)c([N+](=O)[O-])c2C(=O)c2ccccc2F)no1` [Compound 1-22], the half-inhibitory concentration (IC50) at recombinant human COMT was determined as 0.0083 µM. This compound yielded a half-maximal effective concentration (EC50) in test [1] of 523 µM.
In the case of `Cc1nc(-c2cc(O)c(O)c([N+](=O)[O-])c2C(=O)c2ccno2)no1` [Compound 1-24], the half-maximal inhibitory concentration (IC50) at recombinant human COMT amounted to 0.0076 µM. The compound further registered a concentration for a half-maximal effect (EC50) in test [1] greater than 1000 µM.
For `CCOCCc1nc(-c2cc(O)c(O)c([N+](=O)[O-])c2C(C)=O)no1` [Compound 1-37], the IC50 on recombinant human COMT is 0.0047 µM.
Same read-out and setting: the value for `Cc1nc(-c2cc(O)c(O)c([N+](=O)[O-])c2C(=O)C(=O)NC2CCCCC2)no1` [Compound 1-40] was 0.0088 µM; that for `Cc1nc(-c2cc(O)c(O)c([N+](=O)[O-])c2C(=O)C(=O)N(C)C2CCCCC2)no1` [Compound 1-41] was 0.0047 µM.
With `Cc1ccc(C(=O)c2cc(O)c(O)c([N+](=O)[O-])c2)cc1` [Tolcapone, 3,4-dihydroxy-4′-methyl-5-nitro-benzophenone, reference compound], the EC50 in test [1] is 34.3 µM. In other words, the double-digit micromolar range.
